According to ChEMBL document CHEMBL1137635, “Multiple antibiotics exert delayed effects against the Plasmodium falciparum apicoplast” (Antimicrob Agents Chemother, 2007):
Active and inactive are the calls of the source. The calls are words filed in the database; no cut-off is given here.

Legend:
Plasmodium falciparum [1] = assay: Antimalarial activity as 2nd generation ring-stage chloroquine-sensitive Plasmodium falciparum 3D7 after 48 hrs by flow cytometry; type: functional, organism-based; details: 3D7, 48 h
Plasmodium falciparum [2] = assay: Antimalarial activity as 3rd generation ring-stage chloroquine-sensitive Plasmodium falciparum 3D7 after 48 hrs dose then 48 hrs drug-free; type: functional, organism-based; details: 3D7, 48 h
Plasmodium falciparum [3] = assay: Antimalarial activity as 2nd generation ring-stage chloroquine-resistant Plasmodium falciparum W2 after 48 hrs by flow cytometry; type: functional, organism-based; details: W2, 48 h
Plasmodium falciparum [4] = assay: Antimalarial activity as 3rd generation ring-stage chloroquine-resistant Plasmodium falciparum W2 after 48 hrs dose then 48 hrs drug-free; type: functional, organism-based; details: W2, 48 h, read-out: IC50
Plasmodium falciparum [5] = assay: Antimalarial activity as trophozoite arrest after 24 hrs against chloroquine-sensitive Plasmodium falciparum 3D7 infected human erythrocytes at 6 uM 96 hrs post infection; type: functional, organism-based
[6] = Tmax in patient with severe malaria at 200 mg, perorally; type: ADME, organism-based; details: human, in vivo, po
Plasmodium falciparum [7] = assay: Antimalarial activity as 2nd generation parasitaemia after 48 hrs against chloroquine-sensitive Plasmodium falciparum 3D7 infected human erythrocytes at 6 uM 0-12 hrs post invasion; type: functional
Plasmodium falciparum [8] = assay: (§1) Antimalarial activity as 2nd generation parasitaemia after 48 hrs against chloroquine-sensitive Plasmodium falciparum 3D7 infected human erythrocytes at 6 uM 0-24 hrs post invasion; type: functional
Plasmodium falciparum [9] = assay: as §1; type: functional; remark: listed apart in the source
Plasmodium falciparum [10] = assay: Antimalarial activity as 2nd generation parasitaemia after 48 hrs against chloroquine-sensitive Plasmodium falciparum 3D7 infected human erythrocytes at 6 uM 0-48 hrs post invasion; type: functional
Plasmodium falciparum [11] = assay: Antimalarial activity as 2nd generation parasitaemia after 48 hrs against chloroquine-sensitive Plasmodium falciparum 3D7 infected human erythrocytes at 6 uM 12-24 hrs post invasion; type: functional
Plasmodium falciparum [12] = assay: Antimalarial activity as 2nd generation parasitaemia after 48 hrs against chloroquine-sensitive Plasmodium falciparum 3D7 infected human erythrocytes at 6 uM 12-36 hrs post invasion; type: functional
Plasmodium falciparum [13] = assay: Antimalarial activity as 2nd generation parasitaemia after 48 hrs against chloroquine-sensitive Plasmodium falciparum 3D7 infected human erythrocytes at 6 uM 12-48 hrs post invasion; type: functional
Plasmodium falciparum [14] = assay: Antimalarial activity as 2nd generation parasitaemia after 48 hrs against chloroquine-sensitive Plasmodium falciparum 3D7 infected human erythrocytes at 6 uM 24-36 hrs post invasion; type: functional
Plasmodium falciparum [15] = assay: Antimalarial activity as 2nd generation parasitaemia after 48 hrs against chloroquine-sensitive Plasmodium falciparum 3D7 infected human erythrocytes at 6 uM 24-48 hrs post invasion; type: functional
Plasmodium falciparum [16] = assay: Antimalarial activity as 2nd generation parasitaemia after 48 hrs against chloroquine-sensitive Plasmodium falciparum 3D7 infected human erythrocytes at 6 uM 36-48 hrs post invasion; type: functional

CO[C@H]1/C=C/O[C@@]2(C)Oc3c(C)c(O)c4c(O)c(c(/C=N/N5CCN(C)CC5)c(O)c4c3C2=O)NC(=O)/C(C)=C\C=C\[C@H](C)[C@H](O)[C@@H](C)[C@@H](O)[C@@H](C)[C@H](OC(C)=O)[C@@H]1C [RIFAMPIN]
IC50 (Plasmodium falciparum [1]): 2990 nM | IC50 (Plasmodium falciparum [2]): 2830 nM | IC50 (Plasmodium falciparum [3]): 274 nM | IC50 (Plasmodium falciparum [4]): 528 nM | Activity (Plasmodium falciparum [5]): Active | Tmax [6]: 1 h | Activity (Plasmodium falciparum [7]): 65% | Activity (Plasmodium falciparum [8]): 16% | Activity (Plasmodium falciparum [9]): 14% | Activity (Plasmodium falciparum [10]): 15% | Activity (Plasmodium falciparum [11]): 36% | Activity (Plasmodium falciparum [12]): 13% | Activity (Plasmodium falciparum [13]): 13% | Activity (Plasmodium falciparum [14]): 49% | Activity (Plasmodium falciparum [15]): 25% | Activity (Plasmodium falciparum [16]): 93%
